# Data: ChEMBL document CHEMBL3994671, “Similarity- and Substructure-Based Development of β2-Adrenergic Receptor Ligands Based on Unusual Scaffolds” (ACS Med Chem Lett, 2017)
# The source made the active and inactive calls. The calls are words filed in the database; no cut-off is given here.
# Columns and labels:
# [1] = target: T1, Beta-2 adrenergic receptor (Homo sapiens, UniProt P07550); assay: Displacement of [3H]DHA from beta2-AR (unknown origin) expressed in baculovirus infected sf9 cell membranes after 1 hr by scintillation counting method
# Target sequence in this assay (P07550 whole entry): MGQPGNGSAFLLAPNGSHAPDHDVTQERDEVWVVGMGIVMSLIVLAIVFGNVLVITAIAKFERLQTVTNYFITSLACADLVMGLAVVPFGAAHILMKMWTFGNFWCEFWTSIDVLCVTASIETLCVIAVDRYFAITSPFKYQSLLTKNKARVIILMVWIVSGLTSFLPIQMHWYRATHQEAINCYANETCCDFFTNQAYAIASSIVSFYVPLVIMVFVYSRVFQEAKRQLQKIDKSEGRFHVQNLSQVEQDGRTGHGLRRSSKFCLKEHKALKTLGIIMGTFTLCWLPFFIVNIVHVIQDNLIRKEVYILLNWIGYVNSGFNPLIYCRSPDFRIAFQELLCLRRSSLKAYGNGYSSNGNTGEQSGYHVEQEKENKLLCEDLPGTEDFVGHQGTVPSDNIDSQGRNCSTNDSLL
# [2] = target: T1, Beta-2 adrenergic receptor; assay: Displacement of [3H](-)CGP12177 from human beta2-AR expressed in CHOK1 cells after 2 hrs by TopCount microscintillation counting method; assay type: cell-based
# [3] = target: T2, Beta-1 adrenergic receptor (Homo sapiens, UniProt P08588); assay: Displacement of [3H](-)CGP12177 from human beta1-AR expressed in CHOK1 cells after 2 hrs by TopCount microscintillation counting method; assay type: cell-based
# Target sequence in this assay (P08588 whole entry): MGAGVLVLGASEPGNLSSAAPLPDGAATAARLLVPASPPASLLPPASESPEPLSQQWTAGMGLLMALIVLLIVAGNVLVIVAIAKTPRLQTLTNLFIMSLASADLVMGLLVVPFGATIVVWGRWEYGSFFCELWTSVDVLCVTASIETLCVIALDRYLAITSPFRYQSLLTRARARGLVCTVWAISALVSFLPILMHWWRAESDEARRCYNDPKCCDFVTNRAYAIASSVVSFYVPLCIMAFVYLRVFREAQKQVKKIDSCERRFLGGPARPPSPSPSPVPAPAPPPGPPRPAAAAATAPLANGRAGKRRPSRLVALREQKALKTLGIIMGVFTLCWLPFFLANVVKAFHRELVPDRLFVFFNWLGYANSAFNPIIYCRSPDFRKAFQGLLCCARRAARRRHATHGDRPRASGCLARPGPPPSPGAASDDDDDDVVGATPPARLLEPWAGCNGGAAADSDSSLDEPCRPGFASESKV
# Homo sapiens = organism: Homo sapiens; assay: Selectivity ratio of Kd for human beta1-AR expressed in CHOK1 cells to Kd for human beta2-AR expressed in CHOK1 cells; assay type: cell-based
# [4] = target: T1, Beta-2 adrenergic receptor; assay: Antagonist activity at human beta2-AR expressed in CHOK1 cells assessed as inhibition of cimaterol-induced CRE-SPAP production at 100 uM after 5 hrs; assay type: functional, cell-based
# Target sequence in this assay (P07550 whole entry, looked up): as the sequence (P07550 whole entry) above
# [5] = target: T2, Beta-1 adrenergic receptor; assay: Antagonist activity at human beta1-AR expressed in CHOK1 cells assessed as inhibition of cimaterol-induced CRE-SPAP production at 100 uM after 5 hrs; assay type: functional, cell-based
# Target sequence in this assay (P08588 whole entry, looked up): as the sequence (P08588 whole entry) above
# [6] = target: T1, Beta-2 adrenergic receptor; assay: Neutral antagonist activity at human beta2-AR expressed in CHOK1 cells assessed as inhibition of cimaterol-induced CRE-SPAP production at 100 uM after 5 hrs; assay type: functional, cell-based
# Target sequence in this assay (P07550 whole entry, looked up): as the sequence (P07550 whole entry) above
# [7] = target: T2, Beta-1 adrenergic receptor; assay: Neutral antagonist activity at human beta1-AR expressed in CHOK1 cells assessed as inhibition of cimaterol-induced CRE-SPAP production at 100 uM after 5 hrs; assay type: functional, cell-based
# Target sequence in this assay (P08588 whole entry, looked up): as the sequence (P08588 whole entry) above
# [8] = target: T2, Beta-1 adrenergic receptor; assay: Partial agonist activity at human beta1-AR expressed in CHOK1 cells assessed as CRE-SPAP production after 5 hrs; assay type: functional, cell-based
# Target sequence in this assay (P08588 whole entry, looked up): as the sequence (P08588 whole entry) above
# [9] = target: T2, Beta-1 adrenergic receptor; assay: Partial agonist activity at human beta1-AR expressed in CHOK1 cells assessed as CRE-SPAP production after 5 hrs in presence of beta1-AR antagonist CGP20712A; assay type: functional, cell-based
# Target sequence in this assay (P08588 whole entry, looked up): as the sequence (P08588 whole entry) above
# [10] = target: T1, Beta-2 adrenergic receptor; assay: Partial agonist activity at human beta2-AR expressed in CHOK1 cells assessed as inhibition of cimaterol-induced CRE-SPAP production after 5 hrs; assay type: functional, cell-based
# Target sequence in this assay (P07550 whole entry): as the sequence (P07550 whole entry) above
# [11] = target: T2, Beta-1 adrenergic receptor; assay: Partial agonist activity at human beta1-AR expressed in CHOK1 cells assessed as inhibition of cimaterol-induced CRE-SPAP production after 5 hrs; assay type: functional, cell-based
# Target sequence in this assay (P08588 whole entry, looked up): as the sequence (P08588 whole entry) above
# [12] = target: T2, Beta-1 adrenergic receptor; assay: Displacement of [3H](-)CGP12177 from human beta1-AR expressed in CHOK1 cells at 20 to 100 uM after 2 hrs by TopCount microscintillation counting method relative to control; assay type: cell-based
# Target sequence in this assay (P08588 whole entry, looked up): as the sequence (P08588 whole entry) above
# [13] = target: T1, Beta-2 adrenergic receptor; assay: Antagonist activity at human beta2-AR expressed in CHOK1 cells assessed as inhibition of cimaterol-induced CRE-SPAP production at 20 uM after 5 hrs; assay type: functional, cell-based
# Target sequence in this assay (P07550 whole entry, looked up): as the sequence (P07550 whole entry) above
# [14] = target: T2, Beta-1 adrenergic receptor; assay: Antagonist activity at human beta1-AR expressed in CHOK1 cells assessed as inhibition of cimaterol-induced CRE-SPAP production at 20 uM after 5 hrs; assay type: functional, cell-based
# [15] = target: T1, Beta-2 adrenergic receptor; assay: Antagonist activity at human beta2-AR expressed in CHOK1 cells assessed as inhibition of cimaterol-induced CRE-SPAP production at 2 uM after 5 hrs; assay type: functional, cell-based
# Target sequence in this assay (P07550 whole entry, looked up): as the sequence (P07550 whole entry) above
# [16] = target: T2, Beta-1 adrenergic receptor; assay: Antagonist activity at human beta1-AR expressed in CHOK1 cells assessed as inhibition of cimaterol-induced CRE-SPAP production at 2 uM after 5 hrs; assay type: functional, cell-based
Kd ([2]; read-out: pKd (converted)) [µM],Kd [3] [µM],SMILES,Selectivity ratio (Homo sapiens),also measured
38.9,–,C[n+]1c(/C=C/Nc2ccccc2)sc2ccccc21,6.6,–
3.8,45.7,CN(C)CCOCCOc1ccccc1-c1ccccc1,12,inhibition [6]: Active; inhibition [7]: Active
3.55e-05,0.000977,CC(C)(C)NC[C@@H](O)COc1ccccc1-c1ccccc1,27.5,Activity [8]: Active; Activity [9]: inactive; Kd [10]: 0.0182 nM; inhibition [11]: Active
2.63,27.5,C=CCNCCOc1ccccc1-c1ccccc1,10.5,inhibition [4]: Active; inhibition [5]: Active
4.9,13.8,C[n+]1c(/C=C/c2ccccc2Cl)sc2ccccc21,2.8,–
23.4,–,CN(C)CCOc1ccc2ccccc2c1C=O,4.2,–

# Second part, the molecule before the results:
SMILES,Kd ([2]; read-out: pKd (converted)) [µM],Kd [3] [µM],Selectivity ratio (Homo sapiens),also measured
CCNCCOc1ccccc1-c1ccccc1,–,–,–,Ki [1]: 0.009 to 3.2 µM
Cc1cc(O)c(CN2CCCC2)c2c1C(=O)/C(=C\c1ccco1)O2,–,–,–,Ki [1]: 0.009 to 3.2 µM
COc1cccc(/C=C2\Oc3c(CN4CCN(C)CC4)c(O)cc(C)c3C2=O)c1,17.4,26.3,1.5,–
COc1ccc(C(=O)C[n+]2c(C)n(C(F)F)c3ccccc32)cc1,–,–,–,inhibition [2]: Active; inhibition [4]: inactive; inhibition [5]: inactive
C[n+]1c(C2=C(N)N(c3ccccc3)CC2=O)sc2ccccc21,–,–,–,inhibition [2]: inactive
Cc1cc(O)c(CN2CCCC2)c2c1C(=O)/C(=C/c1cc3ccccc3o1)O2,–,–,2.6,–
Cc1cc(O)c(CN(C)C)c2c1C(=O)/C(=C/c1ccccc1)O2,–,–,1.9,–
CCCCN(C)Cc1c(O)cc(C)c2c1O/C(=C\c1cc3cc(Br)ccc3o1)C2=O,–,–,–,inhibition [12]: < 50%
COc1cccc(/C=C2\Oc3c(CN4CCCC4)c(O)cc(C)c3C2=O)c1,5.5,35.5,6.5,inhibition [4]: Active; inhibition [5]: Active
CCOC(=O)C1Oc2cccc(OCC(O)CNC(C)C)c2C1C (centres undefined),–,–,–,Ki [1]: 0.009 to 3.2 µM
CCOC(=O)c1cc(/C=C/c2sc3ccccc3[n+]2C)c2sc3ccccc3n12,0.891,3.09,3.5,inhibition [13]: Active; inhibition [14]: Active; inhibition [15]: Active; inhibition [16]: inactive
COc1cccc(/C=C2\Oc3c(CN(C)C)c(O)cc(C)c3C2=O)c1,21.9,44.7,2,–
CC(O)CNCCOc1ccccc1-c1ccccc1 (centres undefined),–,–,–,Ki [1]: 0.009 to 3.2 µM
Cc1n(-c2ccccc2)c2ccc(Cl)cc2[n+]1CCO,–,–,–,inhibition [2]: Active; inhibition [4]: inactive; inhibition [5]: inactive
CC(C)(C)NCC(O)COc1ccccc1-c1ccccc1 (centres undefined) [BERLAFENONE],–,–,–,Kd ([2]; read-out: Kd): 3.5e-05 µM
COCCNCCOc1ccccc1-c1ccccc1,–,–,–,Ki [1]: 0.009 to 3.2 µM
CCN1C(=Cc2sc3ccccc3[n+]2C)C=Cc2cccc(C)c21,–,–,–,Ki [1]: 0.009 to 3.2 µM
